In the supplement of paper PMC8612539:
Converted amounts (≈) assume the structure as drawn.

System: Histophilus somni
Assay: minimum inhibitory concentration (MIC)
Protocol: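 Broth microdilution MIC (Sensititre BOPO7F bovine plate, CLSI methods) of 19 antimicrobials against field isolates of P. multocida, M. haemolytica, H. somni (deep nasopharyngeal swabs) and E. coli, Enterococcus spp. (rectal swabs) from weaned dairy heifers. Incubation 16-24 h at 35 C. MIC is the lowest concentration preventing visible growth. Values with <= or > lie at the tested range limits. Trimethoprim-sulfamethoxazole is given as the trimethoprim component of a 1:19 mixture.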

Structure (SMILES): CN[C@@H]1[C@H](O)[C@H](NC)[C@H]2O[C@@]3(O)C(=O)C[C@@H](C)O[C@H]3O[C@@H]2[C@H]1O [Spectinomycin]
- minimum inhibitory concentration (isolate (source animal id): 3): > 64 µg/mL
- minimum inhibitory concentration (isolate (source animal id): 4): > 64 µg/mL
- minimum inhibitory concentration (isolate (source animal id): 7): ≤ 8 µg/mL
- minimum inhibitory concentration (isolate (source animal id): 14): 16 µg/mL (≈ 48.1 µM)
- minimum inhibitory concentration (isolate (source animal id): 15): > 64 µg/mL
- minimum inhibitory concentration (isolate (source animal id): 17): ≤ 8 µg/mL
- minimum inhibitory concentration (isolate (source animal id): 18): > 64 µg/mL
- minimum inhibitory concentration (isolate (source animal id): 20): 16 µg/mL (≈ 48.1 µM)
- minimum inhibitory concentration (isolate (source animal id): 23): 16 µg/mL (≈ 48.1 µM)
- minimum inhibitory concentration (isolate (source animal id): 45): 16 µg/mL (≈ 48.1 µM)
- minimum inhibitory concentration (isolate (source animal id): 53): ≤ 8 µg/mL
- minimum inhibitory concentration (isolate (source animal id): 83): ≤ 8 µg/mL
- minimum inhibitory concentration (isolate (source animal id): 88): > 64 µg/mL
- minimum inhibitory concentration (isolate (source animal id): 92): 32 µg/mL (≈ 96.3 µM)
- minimum inhibitory concentration (isolate (source animal id): 93): 64 µg/mL (≈ 193 µM)
- minimum inhibitory concentration (isolate (source animal id): 99): 16 µg/mL (≈ 48.1 µM)
- minimum inhibitory concentration (isolate (source animal id): 100): 16 µg/mL (≈ 48.1 µM)
- minimum inhibitory concentration (isolate (source animal id): 105): 16 µg/mL (≈ 48.1 µM)
- minimum inhibitory concentration (isolate (source animal id): 107): 16 µg/mL (≈ 48.1 µM)
- minimum inhibitory concentration (isolate (source animal id): 108): 16 µg/mL (≈ 48.1 µM)
- minimum inhibitory concentration (isolate (source animal id): 109): 16 µg/mL (≈ 48.1 µM)
- minimum inhibitory concentration (isolate (source animal id): 110): 32 µg/mL (≈ 96.3 µM)
- minimum inhibitory concentration (isolate (source animal id): 117): > 64 µg/mL
- minimum inhibitory concentration (isolate (source animal id): 121): > 64 µg/mL
- minimum inhibitory concentration (isolate (source animal id): 123): > 64 µg/mL
- minimum inhibitory concentration (isolate (source animal id): 124): > 64 µg/mL
- minimum inhibitory concentration (isolate (source animal id): 127): > 64 µg/mL
- minimum inhibitory concentration (isolate (source animal id): 128): > 64 µg/mL
- minimum inhibitory concentration (isolate (source animal id): 130): > 64 µg/mL
- minimum inhibitory concentration (isolate (source animal id): 132): > 64 µg/mL
- minimum inhibitory concentration (isolate (source animal id): 135): ≤ 8 µg/mL
- minimum inhibitory concentration (isolate (source animal id): 140): > 64 µg/mL
- minimum inhibitory concentration (isolate (source animal id): 141): 16 µg/mL (≈ 48.1 µM)
- minimum inhibitory concentration (isolate (source animal id): 142): 32 µg/mL (≈ 96.3 µM)
- minimum inhibitory concentration (isolate (source animal id): 144): > 64 µg/mL
- minimum inhibitory concentration (isolate (source animal id): 146): 64 µg/mL (≈ 193 µM)
- minimum inhibitory concentration (isolate (source animal id): 147): 16 µg/mL (≈ 48.1 µM)
- minimum inhibitory concentration (isolate (source animal id): 151): > 64 µg/mL
- minimum inhibitory concentration (isolate (source animal id): 153): > 64 µg/mL
- minimum inhibitory concentration (isolate (source animal id): 154): 16 µg/mL (≈ 48.1 µM)
- minimum inhibitory concentration (isolate (source animal id): 156): 16 µg/mL (≈ 48.1 µM)
- minimum inhibitory concentration (isolate (source animal id): 157): > 64 µg/mL
- minimum inhibitory concentration (isolate (source animal id): 176): > 64 µg/mL
- minimum inhibitory concentration (isolate (source animal id): 183): > 64 µg/mL
- minimum inhibitory concentration (isolate (source animal id): 186): > 64 µg/mL
- minimum inhibitory concentration (isolate (source animal id): 196): > 64 µg/mL
- minimum inhibitory concentration (isolate (source animal id): 198): > 64 µg/mL
- minimum inhibitory concentration (isolate (source animal id): 200): > 64 µg/mL
- minimum inhibitory concentration (isolate (source animal id): 206): > 64 µg/mL
- minimum inhibitory concentration (isolate (source animal id): 208): > 64 µg/mL
- minimum inhibitory concentration (isolate (source animal id): 210): > 64 µg/mL
- minimum inhibitory concentration (isolate (source animal id): 212): > 64 µg/mL
- minimum inhibitory concentration (isolate (source animal id): 215): > 64 µg/mL
- minimum inhibitory concentration (isolate (source animal id): 216): > 64 µg/mL
- minimum inhibitory concentration (isolate (source animal id): 218): > 64 µg/mL
- minimum inhibitory concentration (isolate (source animal id): 219): > 64 µg/mL
- minimum inhibitory concentration (isolate (source animal id): 224): > 64 µg/mL
- minimum inhibitory concentration (isolate (source animal id): 228): > 64 µg/mL
- minimum inhibitory concentration (isolate (source animal id): 230): > 64 µg/mL
- minimum inhibitory concentration (isolate (source animal id): 233): 64 µg/mL (≈ 193 µM)
- minimum inhibitory concentration (isolate (source animal id): 238): > 64 µg/mL
- minimum inhibitory concentration (isolate (source animal id): 239): > 64 µg/mL
- minimum inhibitory concentration (isolate (source animal id): 241): > 64 µg/mL
- minimum inhibitory concentration (isolate (source animal id): 242): > 64 µg/mL
- minimum inhibitory concentration (isolate (source animal id): 243): > 64 µg/mL
- minimum inhibitory concentration (isolate (source animal id): 245): ≤ 8 µg/mL
- minimum inhibitory concentration (isolate (source animal id): 246): > 64 µg/mL
- minimum inhibitory concentration (isolate (source animal id): 247): > 64 µg/mL
- minimum inhibitory concentration (isolate (source animal id): 248): ≤ 8 µg/mL
- minimum inhibitory concentration (isolate (source animal id): 250): > 64 µg/mL
- minimum inhibitory concentration (isolate (source animal id): 251): > 64 µg/mL
- minimum inhibitory concentration (isolate (source animal id): 252): 64 µg/mL (≈ 193 µM)
- minimum inhibitory concentration (isolate (source animal id): 254): > 64 µg/mL
- minimum inhibitory concentration (isolate (source animal id): 258): > 64 µg/mL
- minimum inhibitory concentration (isolate (source animal id): 259): > 64 µg/mL
- minimum inhibitory concentration (isolate (source animal id): 262): > 64 µg/mL
- minimum inhibitory concentration (isolate (source animal id): 264): 32 µg/mL (≈ 96.3 µM)
- minimum inhibitory concentration (isolate (source animal id): 265): 16 µg/mL (≈ 48.1 µM)
- minimum inhibitory concentration (isolate (source animal id): 266): > 64 µg/mL
- minimum inhibitory concentration (isolate (source animal id): 267): > 64 µg/mL
- minimum inhibitory concentration (isolate (source animal id): 269): > 64 µg/mL
- minimum inhibitory concentration (isolate (source animal id): 271): > 64 µg/mL
- minimum inhibitory concentration (isolate (source animal id): 272): 16 µg/mL (≈ 48.1 µM)
- minimum inhibitory concentration (isolate (source animal id): 274): > 64 µg/mL
- minimum inhibitory concentration (isolate (source animal id): 276): ≤ 8 µg/mL
- minimum inhibitory concentration (isolate (source animal id): 278): > 64 µg/mL
- minimum inhibitory concentration (isolate (source animal id): 280): 16 µg/mL (≈ 48.1 µM)
- minimum inhibitory concentration (isolate (source animal id): 281): > 64 µg/mL
- minimum inhibitory concentration (isolate (source animal id): 283): > 64 µg/mL
- minimum inhibitory concentration (isolate (source animal id): 288): > 64 µg/mL
- minimum inhibitory concentration (isolate (source animal id): 291): > 64 µg/mL
- minimum inhibitory concentration (isolate (source animal id): 292): > 64 µg/mL
- minimum inhibitory concentration (isolate (source animal id): 296): > 64 µg/mL
- minimum inhibitory concentration (isolate (source animal id): 306): > 64 µg/mL
- minimum inhibitory concentration (isolate (source animal id): 336): > 64 µg/mL
- minimum inhibitory concentration (isolate (source animal id): 337): > 64 µg/mL
- minimum inhibitory concentration (isolate (source animal id): 341): > 64 µg/mL
